Read-outs that look alike come from different tables or passages of the source. Marks after values point to notes of the source that are not given here.
Columns and labels:
LC α1-adrenoceptors = experiment: Novel cage test after LC microinjection; assay type: in vivo, rat; settings: for Gross movements: 15 min novel cage
Swiss Webster male mice [1] = experiment: Tail suspension test; assay type: in vivo, mouse; settings: for effect of coinfused antagonist on anti-immobility effect of 6FNE: 6FNE 3 nmoles + antagonist 1 nmole ivt.; for effect of antagonist alone on immobility (antagonist+vehicle versus vehicle-only): antagonist 1 nmole ivt.; for immobility versus vehicle: acute ivt. 6FNE or DEX, DMI subacute i.p. 10 mg/kg, 10 mg/kg
Experimental: (§2) In experiment on chronic administration, a daily dose of 0.5 mg/kg in the same vehicle was administered for 11 d.
(§3) Infusion procedure. All experiments were performed between 1000 and 1400 hr. […] A total of 350 n1 of solution was infused at 100 nl/min over a 3.5 min period with the cannula remaining in place for 30 seconds after infusion. The animal was then subjected to the behavioral tests described below making the interval between the start of infusion and start of behavioral test 4.5-5 min. […] All drugs were prepared freshly each day in saline.
Tail suspension test: The procedure of Stem, et al., Psychopharmacology 1985; 85: 367-370 was used. Immediately following intraventricular infusion or 30 min after the third i.p. injection, the animals were taped by the tail 72 cm above a padded platform for 6 min during which time they were videorecorded. Disks were subsequently rated blind as above for times immobile during the last 4 min of the test.

[2] = system: Fos expression in LC, PVH, lateral septal nucleus and NAC; settings: stimulation or blockade of LC α1-receptors (Stone et al. 2011); cited from earlier work
α1-adrenoceptors = settings: cited from earlier work
[3] = system: cortical α1-adrenoceptors; settings: prazosin 5 mg/kg; cited from earlier work
Swiss Webster male mice [4] = experiment: Repeated open space forced swim (RFS) test; settings: for overall effect of antagonist pretreatment on distance swum / overall effect of antagonist pretreatment on immobility: prazosin 5 mg/kg or atipamezole 0.5 mg/kg i.p.
Experimental: as §2, §3
In this procedure, mice are swum for 15-20 min/d for 4 d in rat tub cages (24×43×23 cm, w×h×l) filled with 13 cm high luke-warm water (32-34° C.) and thereafter once or twice a week. […] In the present experiment, the animals were matched on immobility level of the 4th swim into vehicle and drug groups and infused ivt. just prior to the 5th swim. Groups given i.p. injections were dosed initially 5 min after the 4th swim and finally 30 min prior to the 5th swim. Discs were rated as above on immobility and distance swum (number of quadrants entered).

Swiss Webster male mice [5] = experiment: Open field motor activity and anxiety (i.p. dp6FNE/prazosin); assay type: in vivo, mouse; settings: 1 h; dp6FNE 0.1-3 mg/kg/prazosin; amphetamine 2 mg/kg i.p.
Experimental: For purposes of comparison, some animals received instead d-amphetamine, 2 mg/kg, i.p. Total quadrants entered and time in the center area of the field as a ratio to the total distance traveled were rated from videorecordings.

handling-stressed mice = experiment: Home cage activity after handling and injection stress; assay type: in vivo, mouse; settings: acute i.p. dp6FNE 1 mg/kg in the presence of phentolamine; cirazoline 0.1 mg/kg; FIG. 3
Experimental: FIG. 3 depicts the effect of acute i.p. dp6FNE (1 mg/kg) or cirazoline (0.1 mg/kg), (both N=1), on home cage activity in terms of rearing and ambulation, Veh (N=12).
It is known that peripheral administration of α1-agonists without phentolamine impairs exploratory behavior in the open field (Yang, et al., J Pharmacol exp Ther 1990; 255: 1064-1070).

[6] = Chronic mild stress (CMS)-anhedonia model, sweetened milk consumption; assay type: in vivo; settings: FIG. 5
Text: The latter property may actually be beneficial as it would counter the weight gain frequently reported with antidepressant treatment (Richelson, Mayo Clin Proc 2001; 76: 511-527).

Swiss Webster male mice [7] = experiment: Observation for sedation and signs of toxicity; assay type: in vivo, mouse
Text: Sedation interferes with behavioral performance and is therefore a detrimental side effect to the treatment of major depressive illness in humans.
Although dp6FNE was designed to be a temporary treatment, it was of interest to determine how long it would remain effective if given repeatedly.

mice [8] = experiment: Light/dark box test; assay type: in vivo, mouse; settings: dp6FNE 0, 1, 3, 10 mg/kg i.p. plus phentolamine 1 mg/kg; Example 6, expected
Experimental: (§1) To verify that dp6FNE has anxiolytic effects this agent is tested in both the light/dark box (Shimada, et al., Gen Pharmac 1995; 26: 205-210) and elevated plus-maze (Pellow, et al., J Neurosci Methods 1985; 14: 149-167). […] For the plus-maze, the animal is placed in the center section of the maze and videotaped to determine both number of entries and time spent in the open and closed arms of the maze.

mice [9] = experiment: Elevated plus-maze test; assay type: in vivo, mouse; settings: dp6FNE 0, 1, 3, 10 mg/kg i.p. plus phentolamine 1 mg/kg; Example 6, expected
Experimental: as §1

[10] = in vivo; cited from earlier work
mice [11] = settings: months of chronic treatment (Doze et al. 2009); cited from earlier work
mice [12] = settings: months of chronic treatment (Doze et al. 2009); cited from earlier work; remark: listed apart in the source
brain α-adrenoceptors = settings: cited from earlier work
mice [13] = settings: given chronically in the drinking water; cited from earlier work
α2-adrenoceptors [14] = settings: atipamezole 0.5 mg/kg; cited from earlier work
α2-adrenoceptors [15] = settings: cited from earlier work
[16] = Outside LC (n = 23), 3 nmoles/side
[17] = Within LC (n = 25), 3 nmoles/side
[18] = entire within LC group vs vehicle, 3 nmoles/side

## COc1cc2nc(N3CCN(C(=O)C4CCCO4)CC3)nc(N)c2cc1OC (stereo not drawn) [terazosin]
LC α1-adrenoceptors; [16]
  Cage midline crosses: 16.4 ± 1.5^c
  Time immobile (min): 2.2 ± 0.5^c min
  Gross movements: 123.5 ± 7.9^c
LC α1-adrenoceptors; [17]
  Cage midline crosses: 9.2 ± 2.0^b,e
  Time immobile (min): 7.2 ± 1.6^b,d min
  Gross movements: 71.7 ± 11.7^a,d
LC α1-adrenoceptors; bilaterally injected animals
  TI-: 7.4 ± 1.4 min
  percent decrease of GMs with respect to vehicle: 54.6±9.1%
  percent decrease of cage Xs with respect to vehicle: 53.7±12.1%
LC α1-adrenoceptors; direct hits of LC
  percent depression of GMs compared to mean of the vehicle group: 63.5±7.2%
LC α1-adrenoceptors; [18]
  increase of TI: 77 fold
  reduction of GMs: 54%
  reduction of cage Xs: 55%
LC α1-adrenoceptors; injection within 200μ of LC
  percent depression of GMs compared to mean of the vehicle group: 54.0±7.5%
LC α1-adrenoceptors; injection within 500μ of LC
  percent depression of GMs compared to mean of the vehicle group: 45.6±7.0%
LC α1-adrenoceptors; unilaterally injected animals
  TI-: 6.1 ± 1.7 min
  percent decrease of GMs with respect to vehicle: 50.5±11.1%
  percent decrease of cage Xs with respect to vehicle: 52.1±16.5%
Swiss Webster male mice [1]
  effect of coinfused antagonist on anti-immobility effect of 6FNE: significantly increased immobility when coinfused with 6FNE
  effect of antagonist alone on immobility (antagonist+vehicle versus vehicle-only): significantly increased immobility in the vehicle-treated animals
[2]
  neural activity of the LC measured from c-Fos expression: excitation of virtually every neuron of the nucleus
α1-adrenoceptors
  affinity for respective receptor: low nanomolar affinities

## COc1cc2nc(N3CCN(C(=O)c4ccco4)CC3)nc(N)c2cc1OC [prazosin]
[3]
  block of cortical α1-adrenoceptors by ex vivo binding: 30%
Swiss Webster male mice [4]
  overall effect of antagonist pretreatment on distance swum: significant overall decrease of distance swum
  overall effect of antagonist pretreatment on immobility: significant overall increase of immobility
Swiss Webster male mice [4]; prazosin alone 0.2 mg/kg
  effect of antagonist alone on TST or RFS measures: did not affect these measures

## CC(C)(C)C(=O)Oc1cc(F)c(C(O)CN)cc1OC(=O)C(C)(C)C (stereo not drawn) [dp6FNE, Dipivalyl-6-fluoronorepinephrine]
Swiss Webster male mice [1]; i.p. 1, 3 and 10 mg/kg, FIG. 5
  antidepressant action in tail suspension test: significant antidepressant action
Swiss Webster male mice [5]
  motor activity (quadrants entered): little or no effect on locomotor activity
  relative time in the center of the field: increased time in the center of the field
handling-stressed mice
  home cage exploration / behavioral inhibition after handling and injection stress: same rescue of home cage exploration
[6]; acute i.p. dp6FNE with prazosin 0.2 mg/kg
  CMS reduction of sweetened milk intake: eliminates the CMS reduction of intake
[6]; acute i.p. dp6FNE
  hypophagia: significant hypophagia
Swiss Webster male mice [7]; after repeated treatment, 0.5 mg/kg i.p. 11 daily treatments, no formal measures
  signs of toxicity (reduced arousal, disheveled fur coat): no obvious signs of toxicity
Swiss Webster male mice [7]; intracerebral 6FNE or peripheral dp6FNE, range of behavioral tests
  sedation: Sedation has not been observed
Mice [8]
  time spent in the lighted side: increased time spent
Mice [9]
  time spent in the open arms: increased time spent
[10]
  passage of the blood brain barrier / uptake by the brain: does pass the blood brain barrier
Swiss Webster male mice [4]; acute i.p. administration
  onset of action compared with available antidepressants: significantly faster onset of action
Swiss Webster male mice [4]; acute i.p., dp6FNE 1, 3, 10 mg/kg with prazosin 0.2 mg/kg, DMI 10 mg/kg, FIG. 5
  effect in repeated open-space swim test: significant antidepressant action
Swiss Webster male mice [4]; dp6FNE 0.3 mg/kg with prazosin 0.2 mg/kg, animals not pretreated with either antagonist
  immobility versus vehicle: significantly reduced immobility versus vehicle
Swiss Webster male mice [4]; dp6FNE 0.3 mg/kg with prazosin 0.2 mg/kg, animals not treated with either antagonist
  distance swum versus vehicle: significantly increased distances swum
Swiss Webster male mice [4]; i.p. 0, 1, 3, 10 mg/kg with phentolamine 1 mg/kg, 30 min before swim, Example 5, expected
  speed or efficacy compared with partial α1-agonists: more rapid or efficacious than the partial α1-agonists

## c1ccc(C2CC2)c(OCC2=NCCN2)c1 [cirazoline]
handling-stressed mice
  home cage exploration / behavioral inhibition after handling and injection stress: not effective in reducing behavioral inhibition
Mice [11]
  anxiety measured by behavioral inhibition: failed to affect anxiety
Mice [12]
  anxiety measured by behavioral inhibition: failed to affect anxiety
Brain α-adrenoceptors
  agonist efficacy: partial agonists
Mice [13]
  antidepressant effect: significant antidepressant effects in the forced swim test

## CCC1(c2cnc[nH]2)Cc2ccccc2C1 [atipamezole]
Swiss Webster male mice [1]
  effect of coinfused antagonist on anti-immobility effect of 6FNE: totally abolished the effect of 6FNE
  effect of antagonist alone on immobility (antagonist+vehicle versus vehicle-only): had no effect in this group
α2-adrenoceptors [14]
  blockade of sedative and hypothermic effects of a low dose of dexmedetomidine: approximately 70%
α2-adrenoceptors [15]
  affinity for respective receptor: low nanomolar affinities
Swiss Webster male mice [4]
  overall effect of antagonist pretreatment on distance swum: no significant overall action
  overall effect of antagonist pretreatment on immobility: no significant overall effect

## Cc1cccc([C@H](C)c2cnc[nH]2)c1C [dexmedetomidine]
Swiss Webster male mice [1]
  immobility versus vehicle: equally effective
Swiss Webster male mice [1]; listed as DEX
  immobility versus vehicle: significant dose-dependent decrease in immobility
α2-adrenoceptors [15]
  affinity for respective receptor: low nanomolar affinities
Swiss Webster male mice [4]; 5th swim, acute ivt. 6FNE or DEX, DMI subacute i.p. 10 mg/kg
  distance swum versus vehicle: failed to have an overall significant effect
Swiss Webster male mice [4]; 5th swim, acute ivt. 6FNE or DEX, DMI subacute i.p. 10 mg/kg, 10 mg/kg
  immobility versus vehicle: only 6FNE was effective
Swiss Webster male mice [4]; 5th swim, acute ivt. 6FNE or DEX, DMI subacute i.p. 10 mg/kg, listed as DEX, 10 mg/kg
  immobility versus vehicle: failed to have an overall significant effect on immobility
Swiss Webster male mice [4]; DEX 0.04 nmoles ivt.
  immobility at single dose: borderline significant reduction in immobility
